Measurements: patent US12195432B2, “2-arylbenzimidazoles as Ppargc1a activators for treating neurodegenerative diseases” (THE BOARD OF TRUSTEES OF THE LELAND STANFORD JUNIOR …, priority 2018, dated 2025)

How the values were obtained:
[1] = test system: TNF-α production by BV2 cells or PBMC; assay: Cellular assay to measure TNF-α inhibition (LPS stimulation, ELISA); assay type: cell-based, murine or human; settings: 100 ng/ml LPS over 24 hours, relative to DMSO vehicle, compound concentration and cell type not given
Excerpt: Oxidative metabolism exerts an anti-inflammatory effect on myeloid cell phenotype (O'Neill L A, Front Immunol. 2014) and Ppargc1a can promote this energy metabolic pathway (Spiegelman B M, Novartis Found Symp. 2007). Thus, pharmacological activation of Ppargc1a would be expected to inhibit the inflammatory response of myeloid cells. This phenomenon can be measured in cultures by a TNF-α inhibition assay.
Cellular Assay Protocol to Measure TNF-α Inhibition
The murine myeloid cell line BV2 or human peripheral blood mononuclear cells (PBMC) are cultured in RPMI 1640 media (Cat #11875119, Gibco) supplemented with 10% fetal bovine serum and 1% L-glutamine 1% penicillin. These cells are then stimulated with 100 ng/ml of lipopolysaccharide (LPS, O111:B4, Cat #L2630, Sigma) over 24 hours. LPS stimulation results in the secretion of the inflammatory cytokine TNF-α by BV2 cells or PBMC, which can be quantified by ELISA in culture supernatant samples per manufacturer's protocol (Cat #558273 for BV2 and Cat #558299 for PBMC, BD Biosciences). To determine whether example compounds 1-78 inhibit TNF-α production by BV2 cells or PBMC, the cells were cultured in the presence of the compounds at different concentrations, and fold reduction in TNF-α production relative to TNF-α production by the same cells cultured in the presence of dimethylsulfoxide (as vehicle control) was determined.

[2] = Pharmacokinetic study (mouse): API levels in plasma, brain and liver; assay type: in vivo; settings: mice, prodrug 10 mg/kg p.o., 0.5 h-4 h, API = example 1 compound; for plasma levels of API: FIG. 1; for brain levels of API: FIG. 2; for liver levels of API: FIG. 3
Procedure: Pharmacokinetic studies (mouse) were performed on the example 1, 6-P, 8-P, and 11-P compounds of the present invention. The example 1, 6-P, 8-P, and 11-P compounds were dosed in mice at 10 mg/kg p.o. (n=2). Plasma, brain, and liver were harvested at 0.5 h, 1 h, 2 h, and 4 h. The samples were analyzed by LCMS to determine levels of the example 1 compound, i.e., the active pharmaceutical ingredient (API) for prodrug examples 6-P, 8-P, and 11-P.

Caco-2 cells = assay: Caco-2 permeability assay; assay type: in vitro ADME; settings: 10 μM, pH 7.4, 2 h; for Caco2 A → B: apparent permeability A→B, without elacridar
Procedure: Caco-2 Permeability Assay Protocol
The mixture was analyzed by LC-MS/MS.

For CC(C)(C)c1ccc(-c2nc3ccccc3[nH]2)cc1 [Example 1, 2-(4-(tert-Butyl)phenyl)-1H-benzo[d]imidazole], the “TNFα Inhibition” value [1] was “A (A = >80% inh.)”.
For CC(C)(C)c1ccc(-c2nc3ccccc3n2COC(=O)c2ccc(CN)cc2)cc1.Cl [Example 8-P, (4-(((2-(4-(tert-butyl)phenyl)-1H-benzo[d]imidazol-1-yl)methoxy)carbonyl)-phenyl)methylammonium hydrochloride], the “plasma levels of API” value [2] was “measurable amounts”, the “brain levels of API” value [2] was “measurable amounts” and the “liver levels of API” value [2] was “measurable amounts”.
In the case of Clc1ccc(-c2nc3ccccc3[nH]2)cc1 [Example 8, 2-(4-Chlorophenyl)-1H-benzo[d]imidazole], the “TNFα Inhibition” value [1] is reported as “C (C = <50% inh.)”.
For CC(C)(C)c1ccc(-c2nc3cc(C(N)=O)ccc3[nH]2)cc1 [Example 75, 2-(4-tert-Butylphenyl)-1H-benzo[d]imidazol-5-carboxamide], the “Caco2 A → B” value (Caco-2 cells) was 16 nm/s.
In the case of CC(C)(C)c1ccc(-c2nc3ccccc3n2COC(=O)CCC(=O)O)cc1 [Example 6-P, 4-((2-(4-(tert-Butyl)phenyl)-1H-benzo[d]imidazol-1-yl)methoxy)-4-oxobutanoic acid], the “plasma levels of API” value [2] is reported as “measurable amounts”, the “brain levels of API” value [2] is reported as “measurable amounts” and the “liver levels of API” value [2] is reported as “measurable amounts”.
In the case of CC(C)(C)c1ccc(-c2nc3cc(C(F)(F)F)ccc3[nH]2)cc1 [Example 42, (4-tert-Butylphenyl)-5-(trifluoromethyl)-1H-benzo[d]imidazole], the “Caco2 B → A” value (Caco-2 cells; apparent permeability B→A) is reported as 1.2 nm/s.
For CC(C)(C)c1ccc(-c2nc3ccccc3n2COP(=O)([O-])[O-])cc1.[Na+].[Na+] [Example 11-P, Disodium ((2-(4-(tert-butyl)phenyl)-1H-benzo[d]imidazol-1-yl)methyl) phosphate], the “plasma levels of API” value [2] was “measurable amounts”, the “brain levels of API” value [2] was “measurable amounts” and the “liver levels of API” value [2] was “measurable amounts”.
With CC(C)(C)c1cccc(-c2nc3ccccc3[nH]2)c1 [Example 58, 2-(3-tert-Butylphenyl)-1H-benzo[d]imidazole] the “Caco2 A → B” value (Caco-2 cells) was 21 nm/s.
In the case of c1ccc(-c2nc3ccccc3[nH]2)cc1 [Example 14, 2-(Phenyl)-1H-benzo[d]imidazole], the “TNFα Inhibition” value [1] is reported as “C (C = <50% inh.)”.
